From article PMC8546167, “Osh6 Revisited: Control of PS Transport by the Concerted Actions of PI4P and Sac1 Phosphatase” (Frontiers in Molecular Biosciences, 2021)

Biological target: T1, Osh6 (Saccharomyces cerevisiae, UniProt Q02201)
T1 construct: recombinant in E. coli BL21 Star; N-terminal His6-GB1 tag cleaved by TEV
T1 sequence (Q02201 1-448): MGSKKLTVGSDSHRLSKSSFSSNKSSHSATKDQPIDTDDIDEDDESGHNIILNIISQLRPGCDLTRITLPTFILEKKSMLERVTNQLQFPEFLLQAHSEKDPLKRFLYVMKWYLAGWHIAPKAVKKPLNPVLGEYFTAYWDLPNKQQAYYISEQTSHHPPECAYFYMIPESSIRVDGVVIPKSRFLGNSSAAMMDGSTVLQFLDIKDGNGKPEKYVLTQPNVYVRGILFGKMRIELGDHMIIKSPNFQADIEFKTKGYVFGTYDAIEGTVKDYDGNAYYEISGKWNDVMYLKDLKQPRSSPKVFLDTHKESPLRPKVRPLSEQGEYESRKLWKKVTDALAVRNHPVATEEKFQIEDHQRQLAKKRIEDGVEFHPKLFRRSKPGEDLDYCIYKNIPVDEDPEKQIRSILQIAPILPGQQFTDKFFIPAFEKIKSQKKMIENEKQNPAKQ
Assay: FRET transport between LUVs, C2Lact-CFP biosensor and ATTO488-DOPE
Type: biochemical
Settings: 100 nM Osh6; 5 mol% POPS donor LUVs to POPC acceptor LUVs

## CCCCCCCC/C=C\CCCCCCCC(=O)O[C@H](COC(=O)CCCCCCCCCCCCCCC)COP(=O)(O)OC[C@H](N)C(=O)O [PS, POPS]
  FRET transport between LUVs, C2Lact-CFP biosensor and ATTO488-DOPE: Osh6 molecules pick up PS molecules from any membrane of high PS content
